Results from ChEMBL document CHEMBL1201862, “PubChem BioAssay data set” (2004).
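96-well plates; 48 h exposure; 5 concentrations. Endpoints by linear interpolation between flanking doses. Not reached: highest tested concentration assigned. GI50: concentration for 50% inhibition of growth.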 The source made the active and inactive calls. Cut-off read from the data, not from the text of the source: active = GI50 up to about 1.1 µM and inactive = higher.

Experiments:
Test in all cases: NCI anticancer screen, dose series, 48 h
[1] = tested on: 786-0
[2] = tested on: A498
[3] = tested on: A549
[4] = tested on: ACHN
[5] = tested on: BT-549
[6] = tested on: CCRF-CEM
[7] = tested on: COLO 205
[8] = tested on: DU-145
[9] = tested on: HCT-116
[10] = tested on: HCT-15
[11] = tested on: HOP-62
[12] = tested on: HOP-92
[13] = tested on: Hs-578T
[14] = tested on: IGROV-1
[15] = tested on: KM12
[16] = tested on: MCF7
[17] = tested on: MDA-MB-435
[18] = tested on: MDA-N
[19] = tested on: MOLT-4
[20] = tested on: Malme-3M
[21] = tested on: NCI-H226
[22] = tested on: NCI-H460
[23] = tested on: NCI-H522
[24] = tested on: OVCAR-3
[25] = tested on: OVCAR-4
[26] = tested on: SF-268
[27] = tested on: SF-295
[28] = tested on: SK-MEL-28
[29] = tested on: SK-MEL-2
[30] = tested on: SK-MEL-5
[31] = tested on: SK-OV-3
[32] = tested on: SN12C
[33] = tested on: SNB-75
[34] = tested on: SW-620
[35] = tested on: T47D
[36] = tested on: TK-10
[37] = tested on: UACC-257
[38] = tested on: UO-31
[39] = tested on: CAKI-1
[40] = tested on: EKVX
[41] = tested on: HCC 2998
[42] = tested on: HL-60
[43] = tested on: HT-29
[44] = tested on: K562
[45] = tested on: LOX IMVI
[46] = tested on: M14
[47] = tested on: MDA-MB-231
[48] = tested on: NCI-H23
[49] = tested on: NCI/ADR-RES
[50] = tested on: OVCAR-5
[51] = tested on: OVCAR-8
[52] = tested on: PC-3
[53] = tested on: RXF 393
[54] = tested on: SF-539
[55] = tested on: SNB-19
[56] = tested on: SR
[57] = tested on: U-251
[58] = tested on: UACC-62
[59] = tested on: RPMI-8226

c1ccc(CNC2CC(NCc3ccccn3)CC(NCc3ccccn3)C2)nc1 (configuration not stated)
GI50 [1]: 2.38 µM (inactive)
GI50 [2]: 3.05 µM (inactive)
GI50 [3]: 2.61 µM (inactive)
GI50 [4]: 9.51 µM (inactive)
GI50 [5]: 5.27 µM (inactive)
GI50 [6]: 2.61 µM (inactive)
GI50 [7]: 1.09 µM (active)
GI50 [8]: 4.73 µM (inactive)
GI50 [9]: 3.1 µM (inactive)
GI50 [10]: 4.72 µM
GI50 [11]: 6.89 µM (inactive)
GI50 [12]: 4.67 µM (inactive)
GI50 [13]: 7.66 µM (inactive)
GI50 [14]: 4.38 µM (inactive)
GI50 [15]: 2.7 µM (inactive)
GI50 [16]: 3.5 µM (inactive)
GI50 [17]: 4.5 µM (inactive)
GI50 [18]: 4.47 µM (inactive)
GI50 [19]: 3.39 µM (inactive)
GI50 [20]: 3.52 µM (inactive)
GI50 [21]: 3.32 µM (inactive)
GI50 [22]: 5.15 µM (inactive)
GI50 [23]: 4.6 µM (inactive)
GI50 [24]: 4.08 µM (inactive)
GI50 [25]: 4.13 µM (inactive)
GI50 [26]: 5 µM (inactive)
GI50 [27]: 6.21 µM (inactive)
GI50 [28]: 3.08 µM (inactive)
GI50 [29]: 5.11 µM (inactive)
GI50 [30]: 3.54 µM (inactive)
GI50 [31]: 4.46 µM (inactive)
GI50 [32]: 5.22 µM (inactive)
GI50 [33]: 4.27 µM (inactive)
GI50 [34]: 6.61 µM (inactive)
GI50 [35]: 5.66 µM (inactive)
GI50 [36]: 3.45 µM (inactive)
GI50 [37]: 4.53 µM (inactive)
GI50 [38]: > 25 µM (inactive)

CCOP(=O)(CC(=O)C1CC1)OCC
GI50 [1]: > 100 µM (inactive)
GI50 [3]: > 100 µM (inactive)
GI50 [4]: > 100 µM (inactive)
GI50 [5]: > 100 µM (inactive)
GI50 [39]: > 100 µM (inactive)
GI50 [6]: > 100 µM (inactive)
GI50 [7]: > 100 µM (inactive)
GI50 [8]: > 100 µM (inactive)
GI50 [40]: > 100 µM (inactive)
GI50 [41]: > 100 µM (inactive)
GI50 [9]: > 100 µM (inactive)
GI50 [10]: > 100 µM
GI50 [42]: > 100 µM (inactive)
GI50 [11]: > 100 µM (inactive)
GI50 [43]: > 100 µM (inactive)
GI50 [13]: > 100 µM (inactive)
GI50 [14]: > 100 µM (inactive)
GI50 [44]: > 100 µM (inactive)
GI50 [15]: > 100 µM (inactive)
GI50 [45]: > 100 µM (inactive)
GI50 [46]: > 100 µM (inactive)
GI50 [16]: > 100 µM (inactive)
GI50 [47]: > 100 µM (inactive)
GI50 [18]: > 100 µM (inactive)
GI50 [19]: > 100 µM (inactive)
GI50 [20]: > 100 µM (inactive)
GI50 [21]: > 100 µM (inactive)
GI50 [48]: > 100 µM (inactive)
GI50 [22]: > 100 µM (inactive)
GI50 [23]: > 100 µM (inactive)
GI50 [49]: > 100 µM (inactive)
GI50 [25]: > 100 µM (inactive)
GI50 [50]: > 100 µM (inactive)
GI50 [51]: > 100 µM (inactive)
GI50 [52]: > 100 µM (inactive)
GI50 [53]: 0.01 µM (active)
GI50 [26]: > 100 µM (inactive)
GI50 [27]: > 100 µM (inactive)
GI50 [54]: > 100 µM (inactive)
GI50 [28]: > 100 µM (inactive)
GI50 [29]: > 100 µM (inactive)
GI50 [30]: > 100 µM (inactive)
GI50 [31]: > 100 µM (inactive)
GI50 [32]: > 100 µM (inactive)
GI50 [55]: > 100 µM (inactive)
GI50 [33]: > 100 µM (inactive)
GI50 [56]: > 100 µM (inactive)
GI50 [34]: > 100 µM (inactive)
GI50 [35]: > 100 µM (inactive)
GI50 [36]: > 100 µM (inactive)
GI50 [57]: > 100 µM (inactive)
GI50 [37]: > 100 µM (inactive)
GI50 [58]: > 100 µM (inactive)
GI50 [38]: > 100 µM (inactive)

COc1ccc(N2C(=O)C(=O)C3(CCCCC3)C2=O)c(OC)c1OC
GI50 [1]: > 100 µM (inactive)
GI50 [3]: > 100 µM (inactive)
GI50 [4]: > 100 µM (inactive)
GI50 [5]: 34 µM (inactive)
GI50 [39]: > 100 µM (inactive)
GI50 [6]: > 100 µM (inactive)
GI50 [7]: > 100 µM (inactive)
GI50 [8]: > 100 µM (inactive)
GI50 [40]: > 100 µM (inactive)
GI50 [9]: > 100 µM (inactive)
GI50 [10]: > 100 µM
GI50 [42]: > 100 µM (inactive)
GI50 [43]: > 100 µM (inactive)
GI50 [13]: > 100 µM (inactive)
GI50 [15]: > 100 µM (inactive)
GI50 [45]: > 100 µM (inactive)
GI50 [46]: > 100 µM (inactive)
GI50 [16]: > 100 µM (inactive)
GI50 [17]: > 100 µM (inactive)
GI50 [18]: > 100 µM (inactive)
GI50 [19]: > 100 µM (inactive)
GI50 [20]: > 100 µM (inactive)
GI50 [21]: > 100 µM (inactive)
GI50 [48]: > 100 µM (inactive)
GI50 [23]: > 100 µM (inactive)
GI50 [49]: > 100 µM (inactive)
GI50 [24]: > 100 µM (inactive)
GI50 [25]: > 100 µM (inactive)
GI50 [50]: > 100 µM (inactive)
GI50 [51]: > 100 µM (inactive)
GI50 [52]: > 100 µM (inactive)
GI50 [59]: > 100 µM (inactive)
GI50 [53]: > 100 µM (inactive)
GI50 [26]: > 100 µM (inactive)
GI50 [27]: > 100 µM (inactive)
GI50 [54]: > 100 µM (inactive)
GI50 [28]: > 100 µM (inactive)
GI50 [30]: > 100 µM (inactive)
GI50 [31]: > 100 µM (inactive)
GI50 [32]: > 100 µM (inactive)
GI50 [55]: > 100 µM (inactive)
GI50 [33]: > 100 µM (inactive)
GI50 [56]: > 100 µM (inactive)
GI50 [34]: > 100 µM (inactive)
GI50 [35]: > 100 µM (inactive)
GI50 [36]: > 100 µM (inactive)
GI50 [57]: > 100 µM (inactive)
GI50 [37]: > 100 µM (inactive)
GI50 [58]: > 100 µM (inactive)
GI50 [38]: > 100 µM (inactive)
